This passage reports IC50 results from US9273058B2 (BRISTOL-MYERS SQUIBB COMPANY, priority 2013, dated 2016).

The target of one experiment is CK1ε (Homo sapiens, UniProt P49674). The experiment is described as follows: CK1ε kinase assay (Caliper LabChip electrophoretic separation of fluoresceinated peptide substrate and product). It counts as biochemical. The conditions noted are these: 200 pM CK1ε, 50 μM ATP, 1.5 μM peptide, 22 hours at room temperature; read-out: CK1ε IC50 range. The method, boiled down: (§1)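 Kinase reactions ran 22 h at room temperature, were stopped with EDTA, and phosphorylated product was separated electrophoretically from unphosphorylated fluoresceinated peptide. Compounds were tested at eleven concentrations from 10 mM DMSO stocks. IC50 by non-linear regression.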
Chain of CK1ε (P49674 whole entry): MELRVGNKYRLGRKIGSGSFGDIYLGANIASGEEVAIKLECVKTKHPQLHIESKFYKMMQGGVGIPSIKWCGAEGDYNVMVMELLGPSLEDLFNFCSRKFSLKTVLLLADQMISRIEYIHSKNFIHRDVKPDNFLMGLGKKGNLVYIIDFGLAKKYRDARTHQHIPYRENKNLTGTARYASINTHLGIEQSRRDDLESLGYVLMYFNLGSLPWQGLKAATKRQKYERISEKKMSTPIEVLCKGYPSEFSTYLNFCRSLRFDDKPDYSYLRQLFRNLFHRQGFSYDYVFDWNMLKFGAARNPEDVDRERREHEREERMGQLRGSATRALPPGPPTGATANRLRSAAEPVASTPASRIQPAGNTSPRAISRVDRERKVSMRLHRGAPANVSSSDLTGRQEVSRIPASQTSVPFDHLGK

The target of the next experiment is CK1δ (Homo sapiens, UniProt P48730). The experiment is described as follows: CK1δ kinase assay (Caliper LabChip electrophoretic separation of fluoresceinated peptide substrate and product). It counts as biochemical. The conditions noted are these: 200 pM CK1δ, 50 μM ATP, 1.5 μM peptide, 22 hours at room temperature; read-out: CK1δ IC50 range. In a few lines: as §1
Chain of CK1δ (P48730 whole entry): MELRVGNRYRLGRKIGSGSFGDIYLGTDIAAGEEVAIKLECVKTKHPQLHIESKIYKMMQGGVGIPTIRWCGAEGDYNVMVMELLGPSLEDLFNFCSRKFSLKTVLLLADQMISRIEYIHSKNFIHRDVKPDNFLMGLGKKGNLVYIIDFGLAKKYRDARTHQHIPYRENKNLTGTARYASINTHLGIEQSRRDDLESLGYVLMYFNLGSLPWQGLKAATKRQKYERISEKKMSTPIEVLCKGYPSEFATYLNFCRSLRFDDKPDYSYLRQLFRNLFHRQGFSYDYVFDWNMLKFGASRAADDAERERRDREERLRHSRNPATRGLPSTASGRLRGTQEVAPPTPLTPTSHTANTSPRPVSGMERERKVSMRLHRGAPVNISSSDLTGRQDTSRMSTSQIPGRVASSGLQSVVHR

For orientation: IC50 means the concentration needed to halve the response being measured.

The structures appear in SMILES notation.

Turning to `CC1(NC(=O)N2Cc3c(C(N)=O)c(-c4ccc(F)c(Cl)c4)nn3[C@H]3COC[C@H]32)CC(F)(F)C1` [Compound 354, (5aS,8aR)-2-(3-Chloro-4-fluorophenyl)-N^5-(3,3-difluoro-1-methylcyclobutyl)-5a,6,8,8a-tetrahydrofuro[3,4-e]pyrazolo [1,5-a]pyrazine-3,5(4H)-dicarboxamide], the IC50 on CK1ε and at CK1δ was 0.01 to 10 nM throughout.

Turning to `CC(C)(C)NC(=O)N1Cc2c(C(N)=O)c(-c3cccc(Cl)c3)nn2C(CF)C1` (stereo not drawn) [Compound A5, N^5-(tert-butyl)-2-(3-chlorophenyl)-7-(fluoromethyl)-6,7-dihydropyrazolo[1,5-a] pyrazine-3,5(4H)-dicarboxamide], the IC50 at CK1ε and on CK1δ was 0.01 to 10 nM each time.

In the case of `CC1(NC(=O)N2Cc3c(C(N)=O)c(-c4ccc(F)c(Cl)c4)nn3C(CF)C2)CC(F)(F)C1` (stereo not drawn) [Compound A9, 2-(3-Chloro-4-fluorophenyl)-N^5-(3,3-difluoro-1-methylcyclobutyl)-7-(fluoromethyl)-6,7-dihydropyrazolo[1,5-a]pyrazine-3,5(4H)-dicarboxamide], the IC50 on CK1ε and at CK1δ was 0.01 to 10 nM each time.

For `CC1(NC(=O)N2Cc3c(C(N)=O)c(-c4ccc(F)c(Cl)c4)nn3C(CF)C2)CC(F)(F)C1` (stereo not drawn) [Compound A10, 2-(3-Chloro-4-fluorophenyl)-N^5-(3,3-difluoro-1-methylcyclobutyl)-7-(fluoromethyl)-6,7-dihydropyrazolo[1,5-a]pyrazine-3,5(4H)-dicarboxamide], the IC50 at CK1ε and at CK1δ was 0.01 to 10 nM throughout.

As to `NC(=O)c1c(-c2ccc(F)c(Cl)c2)nn2c1CN(C(=O)NC1CCCC1)CC2C(F)F` (stereo not drawn) [Compound A11, 2-(3-Chloro-4-fluorophenyl)-N^5-cyclopentyl-7-(difluoromethyl)-6,7-dihydropyrazolo[1,5-a]pyrazine-3,5(4H)-dicarboxamide], the half-maximal inhibitory concentration (IC50) on CK1ε and at CK1δ was 0.01 to 10 nM throughout.

As to `NC(=O)c1c(-c2ccc(F)c(Cl)c2)nn2c1CN(C(=O)NC1CCCC1)CC2C(F)F` (stereo not drawn) [Compound A12, 2-(3-Chloro-4-fluorophenyl)-N^5-cyclopentyl-7-(difluoromethyl)-6,7-dihydropyrazolo[1,5-a]pyrazine-3,5(4H)-dicarboxamide], the half-inhibitory concentration (IC50) lay in the range of 0.01 to 10 nM on CK1ε and 10 to 100 nM on CK1δ.

With `NC(=O)c1c(-c2ccc(F)c(Cl)c2)nn2c1CN(C(=O)NC1CCC(F)(F)CC1)C[C@H]2C(F)F` [Compound A13, (S)-2-(3-Chloro-4-fluorophenyl)-N^5-(4,4-difluorocyclohexyl)-7-(difluoromethyl)-6,7-dihydropyrazolo[1,5-a] pyrazine-3,5(4H)-dicarboxamide], the IC50 on CK1ε and at CK1δ was 0.01 to 10 nM throughout.

Regarding `NC(=O)c1c(-c2ccc(F)c(Cl)c2)nn2c1CN(C(=O)NC1CCC(F)(F)CC1)C[C@@H]2C(F)F` [Compound A14, (R)-2-(3-Chloro-4-fluorophenyl)-N^5-(4,4-difluorocyclohexyl)-7-(difluoromethyl)-6,7-dihydropyrazolo[1,5-a] pyrazine-3,5(4H)-dicarboxamide], the concentration for half-maximal inhibition (IC50) on CK1ε and at CK1δ was 0.01 to 10 nM in each case.

Regarding `CC(C)(C)NC(=O)N1Cc2c(C(N)=O)c(-c3ccc(F)c(Cl)c3)nn2C(CN2CCOCC2)C1` (stereo not drawn) [Compound A15, N^5-(tert-Butyl)-2-(3-chloro-4-fluorophenyl)-7-(morpholinomethyl)-6,7-dihydropyrazolo[1,5-a]pyrazine-3,5(4H)-dicarboxamide], the IC50 at CK1ε and at CK1δ was 0.01 to 10 nM each time.

Consider `CC(C)(C)NC(=O)N1Cc2c(C(N)=O)c(-c3ccc(F)c(Cl)c3)nn2C(CN2CCOCC2)C1` (stereo not drawn) [Compound A16, N^5-(tert-Butyl)-2-(3-chloro-4-fluorophenyl)-7-(morpholinomethyl)-6,7-dihydropyrazolo[1,5-a]pyrazine-3,5(4H)-dicarboxamide], for which the IC50 at CK1ε was 0.01 to 10 nM; at CK1δ, 10 to 100 nM.

On to `CC(C)(C)NC(=O)N1Cc2c(C(N)=O)c(-c3ccc(F)c(Cl)c3)nn2C(C(C)(C)O)C1` (stereo not drawn) [Compound A17, N^5-(tert-Butyl)-2-(3-chloro-4-fluorophenyl)-7-(2-hydroxypropan-2-yl)-6,7-dihydropyrazolo[1,5-a]pyrazine-3,5(4H)-dicarboxamide], for which the IC50 on CK1ε and on CK1δ was 10 to 100 nM in each case.

Take `CC(C)(C)NC(=O)N1Cc2c(C(N)=O)c(-c3ccc(F)c(Cl)c3)nn2C(C(C)(C)O)C1` (stereo not drawn) [Compound A18, N^5-(tert-Butyl)-2-(3-chloro-4-fluorophenyl)-7-(2-hydroxypropan-2-yl)-6,7-dihydropyrazolo[1,5-a]pyrazine-3,5(4H)-dicarboxamide]: the IC50 on CK1ε and at CK1δ was 0.01 to 10 nM throughout.

With `CC(C)(O)[C@@H]1CN(C(=O)NC2CC(F)(F)C2)Cc2c(C(N)=O)c(-c3ccc(F)c(Cl)c3)nn21` [Compound A19, (S)-2-(3-Chloro-4-fluorophenyl)-N^5-(3,3 - difluorocyclobutyl)-7-(2-hydroxypropan-2-yl)-6,7-dihydropyrazolo[1,5-a] pyrazine-3,5(4H)-dicarboxamide], the IC50 on CK1ε and at CK1δ was 10 to 100 nM in each case.

`CC(C)(O)[C@H]1CN(C(=O)NC2CC(F)(F)C2)Cc2c(C(N)=O)c(-c3ccc(F)c(Cl)c3)nn21` [Compound A20, (R)-2-(3-Chloro-4-fluorophenyl)-N^5-(3,3 difluorocyclobutyl)-7-(2-hydroxypropan-2-yl)-6,7-dihydropyrazolo[1,5-a] pyrazine-3,5(4H)-dicarboxamide]: the IC50 on CK1ε and on CK1δ was 0.01 to 10 nM each time.

As to `CC(C)(C)NC(=O)N1Cc2c(C(N)=O)c(-c3ccc(F)c(Cl)c3)nn2C(COC(F)F)C1` (stereo not drawn) [Compound A21, N^5-(tert-Butyl)-2-(3-chloro-4-fluorophenyl)-7-((difluoromethoxy)methyl)-6,7-dihydropyrazolo[1,5-a]pyrazine-3,5(4H)-dicarboxamide], the IC50 lay within 0.01 to 10 nM on CK1ε and 10 to 100 nM on CK1δ.

As for `CC(C)(C)NC(=O)N1Cc2c(C(N)=O)c(-c3ccc(F)c(Cl)c3)nn2C(COC(F)F)C1` (stereo not drawn) [Compound A22, N^5-(tert-Butyl)-2-(3-chloro-4-fluorophenyl)-7-((difluoromethoxy)methyl)-6,7-dihydropyrazolo[1,5-a]pyrazine-3,5(4H)-dicarboxamide], the IC50 at CK1ε and at CK1δ was 0.01 to 10 nM each time.

`CC(C)(C)NC(=O)N1Cc2c(C(N)=O)c(-c3ccc(F)c(Cl)c3)nn2C(C(=O)NC2CC2)C1` (stereo not drawn) [Compound A23, N^5-(tert-Butyl)-2-(3-chloro-4-fluorophenyl)-N^7-cyclopropyl-6,7-dihydropyrazolo[1,5-a]pyrazine-3,5,7(4H)-tricarboxamide]: the IC50 on CK1ε fell in the range of 10 to 100 nM; at CK1δ, 100 to 2000 nM.

`CC(C)(C)NC(=O)N1Cc2c(C(N)=O)c(-c3ccc(F)c(Cl)c3)nn2C(C(=O)NC2CC2)C1` (stereo not drawn) [Compound A24, N^5-(tert-Butyl)-2-(3-chloro-4-fluorophenyl)-N^7-cyclopropyl-6,7-dihydropyrazolo[1,5-a]pyrazine-3,5,7(4H)-tricarboxamide]: the IC50 is 10 to 100 nM on CK1ε and 100 to 2000 nM on CK1δ.
